Reference: PMC6134994, “Discovery of Potent Disheveled/Dvl Inhibitors Using Virtual Screening Optimized With NMR-Based Docking Performance Index” (Frontiers in Pharmacology, 2018)

Columns and labels:
[1] = molecular target: T1, mZO1-PDZ1 (mouse ZO-1 first PDZ domain) (Mus musculus, UniProt P39447); experiment: NMR chemical shift perturbation (1H-15N HSQC)
T1 construct: gene Tjp1
T1 sequence (P39447 18-110): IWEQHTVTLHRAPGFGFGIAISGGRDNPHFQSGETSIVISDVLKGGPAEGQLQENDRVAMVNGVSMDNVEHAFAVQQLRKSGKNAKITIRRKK

[2] = molecular target: T2, hDvl1-PDZ (human Dvl1 PDZ domain) (Homo sapiens, UniProt O14640, C338A/W339T); experiment: NMR chemical shift perturbation at […] equivalents (averaged normalized shift); format: binding
T2 construct: PDZ domain, residues 246–340
T2 sequence (O14640 246-340 C338A/W339T): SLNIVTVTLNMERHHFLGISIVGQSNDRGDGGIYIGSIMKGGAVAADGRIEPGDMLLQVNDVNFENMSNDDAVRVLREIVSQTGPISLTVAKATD

Row | Structure (SMILES) | NMR chemical shift perturbation (1H-15N HSQC) [1] | Δδave/ppm [2] [ppm]
1 | O=C(Cc1ccccc1)Nc1cccc(C(=O)Nc2ccccc2C(=O)O)c1 [CalBioChem-322338] | residues surrounding the canonical binding site of mZO1-PDZ1 showed substantial CSP upon CalBioChem-322338 | 
2 | CC(=O)C(=NNc1cccc(S(=O)(=O)Nc2ccccc2C(=O)O)c1)C(=O)c1ccccc1 [NPL-3009] |  | 0.044
